In brackets after ≈: the same amount, converted by molar mass.
How the values were obtained:
Format in all cases: functional
Bacillus subtilis [1] = assay: Antibacterial activity against Bacillus subtilis ATCC 6633 at 140 ug/disk after 18 to 24 hr by disk diffusion method; conditions: read-out: DIZ
Candida albicans [2] = assay: Antifungal activity against Candida albicans ATCC 90028 at 140 ug/disk after 18 to 24 hr by disk diffusion method; conditions: read-out: DIZ
Bacillus cereus [3] = assay: Antibacterial activity against Bacillus cereus ATCC 11778 after 18 to 24 hr by broth microdilution method
[4] = tested on: Staphylococcus epidermidis; assay: Antibacterial activity against Staphylococcus epidermidis ATCC 12228 at 140 ug/disk after 18 to 24 hr by disk diffusion method; conditions: read-out: DIZ
Enterococcus faecalis [5] = assay: Antibacterial activity against Enterococcus faecalis ATCC 29212 after 18 to 24 hr by broth microdilution method
Escherichia coli [6] = assay: Antibacterial activity against Escherichia coli ATCC 25922 after 18 to 24 hr by broth microdilution method
Staphylococcus aureus [7] = assay: Antibacterial activity against Staphylococcus aureus ATCC 25923 after 18 to 24 hr by broth microdilution method
Klebsiella pneumoniae [8] = assay: Antibacterial activity against Klebsiella pneumoniae ATCC 13883 after 18 to 24 hr by broth microdilution method
Pseudomonas aeruginosa [9] = assay: Antibacterial activity against Pseudomonas aeruginosa ATCC 27853 at 140 ug/disk after 18 to 24 hr by disk diffusion method; conditions: read-out: DIZ
Bacillus subtilis [10] = assay: Antibacterial activity against Bacillus subtilis ATCC 6633 after 18 to 24 hr by broth microdilution method
Bacillus cereus [11] = assay: Antibacterial activity against Bacillus cereus ATCC 11778 at 140 ug/disk after 18 to 24 hr by disk diffusion method; conditions: read-out: DIZ
Escherichia coli [12] = assay: Antibacterial activity against Escherichia coli ATCC 25922 at 140 ug/disk after 18 to 24 hr by disk diffusion method; conditions: read-out: DIZ
Pseudomonas fluorescens [13] = assay: Antibacterial activity against Pseudomonas fluorescens ATCC 49838 at 140 ug/disk after 18 to 24 hr by disk diffusion method; conditions: read-out: DIZ
Enterococcus faecalis [14] = assay: Antibacterial activity against Enterococcus faecalis ATCC 29212 at 140 ug/disk after 18 to 24 hr by disk diffusion method; conditions: read-out: DIZ
[15] = tested on: Staphylococcus epidermidis; assay: Antibacterial activity against Staphylococcus epidermidis ATCC 12228 after 18 to 24 hr by broth microdilution method
Pseudomonas fluorescens [16] = assay: Antibacterial activity against Pseudomonas fluorescens ATCC 49838 after 18 to 24 hr by broth microdilution method
Klebsiella pneumoniae [17] = assay: Antibacterial activity against Klebsiella pneumoniae ATCC 13883 at 140 ug/disk after 18 to 24 hr by disk diffusion method; conditions: read-out: DIZ
Candida albicans [18] = assay: Antifungal activity against Candida albicans ATCC 90028 after 18 to 24 hr by broth microdilution method
Pseudomonas aeruginosa [19] = assay: Antibacterial activity against Pseudomonas aeruginosa ATCC 27853 after 18 to 24 hr by broth microdilution method
Klebsiella aerogenes [20] = assay: Antibacterial activity against Enterobacter aerogenes ATCC 13048 at 140 ug/disk after 18 to 24 hr by disk diffusion method; conditions: read-out: DIZ
Staphylococcus aureus [21] = assay: Antibacterial activity against Staphylococcus aureus ATCC 25923 at 140 ug/disc after 18 to 24 hr by disk diffusion method; conditions: read-out: DIZ
Klebsiella aerogenes [22] = assay: Antibacterial activity against Enterobacter aerogenes ATCC 13048 after 18 to 24 hr by broth microdilution method

MIC (Bacillus cereus [3]) [µg/mL] | MIC (Enterococcus faecalis [5]) [µg/mL] | MIC (Escherichia coli [6]) [µg/mL] | MIC (Staphylococcus aureus [7]) [µg/mL] | MIC (Klebsiella pneumoniae [8]) [µg/mL] | MIC (Bacillus subtilis [10]) [µg/mL] | MIC [15] [µg/mL] | MIC (Pseudomonas fluorescens [16]) [µg/mL] | MIC (Candida albicans [18]) [µg/mL] | MIC (Pseudomonas aeruginosa [19]) [µg/mL] | Structure (SMILES) | zone of inhibition at 140 µg/disc (Bacillus subtilis [1]) [mm] | zone of inhibition at 140 µg/disc (Candida albicans [2]) [mm] | zone of inhibition at 140 µg/disc [4] [mm] | zone of inhibition at 140 µg/disc (Pseudomonas aeruginosa [9]) [mm] | zone of inhibition at 140 µg/disc (Bacillus cereus [11]) [mm] | zone of inhibition at 140 µg/disc (Escherichia coli [12]) [mm] | zone of inhibition at 140 µg/disc (Pseudomonas fluorescens [13]) [mm] | zone of inhibition at 140 µg/disc (Enterococcus faecalis [14]) [mm] | zone of inhibition at 140 µg/disc (Klebsiella pneumoniae [17]) [mm] | zone of inhibition at 140 µg/disc (Klebsiella aerogenes [20]) [mm] | other results
500 (≈ 1.64 mM) | 1000 (≈ 3.29 mM) | 1000 (≈ 3.29 mM) | 500 (≈ 1.64 mM) | 1000 (≈ 3.29 mM) | 500 (≈ 1.64 mM) | 500 (≈ 1.64 mM) | 1000 (≈ 3.29 mM) | 500 (≈ 1.64 mM) | 1000 (≈ 3.29 mM) | C/C(=N\N(C)S(=O)(=O)c1ccccc1)c1ccccc1O | 9 | 12 | 12 | 5 | 10 | 11 | 11 | 9 | 6 | 5 | zone of inhibition at 140 µg/disc (Staphylococcus aureus [21]): 10 mm; MIC (Klebsiella aerogenes [22]): 1000 µg/mL (≈ 3.29 mM)
> 2000 | > 2000 | 1000 (≈ 4.34 mM) | > 2000 | > 2000 | > 2000 | > 2000 | 1000 (≈ 4.34 mM) | 1000 (≈ 4.34 mM) | 1000 (≈ 4.34 mM) | NCC(O)CNS(=O)(=O)c1ccccc1 (centres undefined) | 0 | 0 | 0 | 0 | 0 | 0 | 0 | 0 | 0 | 0 | zone of inhibition at 140 µg/disc (Staphylococcus aureus [21]): 0 mm; MIC (Klebsiella aerogenes [22]): 1000 µg/mL (≈ 4.34 mM)

Source: ChEMBL document CHEMBL3044670, “Aromatic sulfonyl hydrazides and sulfonyl hydrazones: antimicrobial activity and physical properties” (2013)
